Consider 17 molecules from US11401264B2, “Heterocyclic compound” (Orizuru Therapeutics, Inc., priority 2018, dated 2022).

SMILES strings stand for the structures.

For the test, the system named is cardiomyocytes from double knock-in human iPS cell lines (mCherry at TNNI3 locus). The test is described as follows: Experimental Example 1: mCherry (TNNI3 reporter) immunostaining measured by high contents screening. The format is cell-based. The arrangement: key to average fluorescent intensity (at 30 μM): —: The symbol in Table 2 means that the average fluorescent intensity cannot be evaluated due to cell decrease. Particulars: read on 8th day, Alexa 647 anti-mCherry, control well 797; for average fluorescent intensity (at 1 μM): test compound 1 μM added on 3rd and 6th culture days; for average fluorescent intensity (at 30 μM): test compound 30 μM added on 3rd and 6th culture days. Here is the method: For detection of cardiomyocyte maturation, double knock-in human iPS cell lines, in which reporter protein sequences, EmGFP (Sequence Number 1) and mCherry (Sequence Number 2) were inserted into gene loci for TNNI1 and TNNI3, respectively, were prepared (the human iPS cells were prepared from episomal vector (loaded gene; OCT3/4, KLF4, SOX2, L-MYC, LIN28, mouse p53DD) using PBMC (LP_167, Sample ID: 20130318) purchased from CTL (reference literature; Okita K, et al. Stem Cells. 2012 Nov. 29. doi: 10.1002/stem.1293)).
The maintenance culture of the above-mentioned reporter iPS cell lines was carried out by a conventional method (Okita K, et al. Stem Cells. 2012 Nov. 29. doi: 10.1002/stem.1293).
For differentiation induction into cardiomyocytes, the reporter iPS cell lines were treated with 0.5×TrypLE select (Life Technologies, diluted in 1/2 with 0.5 mM EDTA/PBS) for 4 to 5 minutes, and the cells were exfoliated using a cell scraper (IWAKI), and then dissociated into the single cell by pipetting. The medium was removed by centrifugation (1,000 rpm, 5 min), and the obtained cells were seeded on a bioreactor (ABLE) by 1×10^7 cells per 30 mL of the bioreactor, and then cultured in a medium prepared by adding 1% L-glutamine, transferrin 150 μg/mL, ascorbic acid 50 μg/mL (Sigma), monothioglycerol 4×10^−4 M, 10 μM Rock inhibitor (Y-27632), 2 ng/mL BMP4 (R&D) and 0.5% Matrigel (Growth Factor Reduced) to a medium after removal of solution C from StemFit AK02 (AJINOMOTO AK02, 400 mL of solution A and 100 mL of B solution, total 500 mL), at 37° C., under 5% oxygen condition (55 rpm, stirred suspension culture method) to form embryoid bodies (0 day).
Next day (1st day), 9 μL (final concentration 3 ng/mL) of 10 μg/mL activin A, 15 μL (final concentration 5 ng/mL) of 10 μg/mL bFGF and […] (final concentration 10 ng/mL) of 10 μg/mL BMP4 were added to the bioreactor, and the cells were cultured at 37° C. for additional 2 days, under 5% oxygen condition.
Then (3rd day), the obtained embryoid bodies were collected in a 50 mL centrifuge tube, and then subjected to centrifugation (200 g, 1 min). The medium was removed, and the embryoid bodies were cultured in a medium prepared by adding 1% L-glutamine, transferrin 150 μg/mL, ascorbic acid 50 μg/mL (Sigma), monothioglycerol 4×10^−4 M, 10 ng/mL VEGF, 1 μM IWP-3, 0.6 μM dorsomorphin and 5.4 μM SB431542 to a medium after removal of solution C from StemFit AK02 (AJINOMOTO AK02, 400 mL of solution A and 100 mL of B solution, total 500 mL), at 37° C. for 3 days, under 5% oxygen condition (55 rpm, stirred suspension culture method).
Then (6th day), the bioreactor was left to stand to precipitate the embryoid bodies, and 80 to 90% of the medium was removed. A medium prepared by adding 1% L-glutamine, transferrin 150 μg/mL, ascorbic acid 50 μg/mL (Sigma), monothioglycerol […] and 5 ng/mL VEGF to a medium after removal of solution C from StemFit AK02 (AJINOMOTO AK02, 400 mL of solution A and 100 mL of B solution, total 500 mL) was added to the bioreactor so that the total volume became 30 mL, and the embryoid bodies were cultured for 8 days, at 37° C., under 5% oxygen condition (55 rpm, stirred suspension culture method). During the culture, the medium was replaced with a medium under the same conditions every 2 to 3 days.
14th Day after the start of the differentiation induction, the embryoid bodies were treated with 2 mg/mL collagenase type I (Sigma) for 2 hr, and then with 0.25% trypsin/EDTA (Invitrogen) for 10 min. 50% FBS/IMDM (Thermo Fisher Science) was added thereto, and the embryoid bodies were dissociated into the single cell by pipetting, and then subjected to centrifugation (1,000 rpm, 5 minutes). […]

On to `Cc1ccc(NC(=O)COc2ccc(-c3nc4cc(N5Cc6cc(N7CCCCC7)ccc6C5=O)ccc4[nH]3)cc2)cc1` [Example 22, N-(4-methylphenyl)-2-(4-(5-(1-oxo-5-(piperidin-1-yl)-1,3-dihydro-2H-isoindol-2-yl)-1H-benzimidazol-2-yl)phenoxy)acetamide], for which the “average fluorescent intensity (at 1 μM)” value stood at 1211 and the “average fluorescent intensity (at 30 μM)” value is given as “—”.
Regarding `Cc1cccc(NC(=O)COc2ccc(-c3nc4cc(N5Cc6cc(N7CCCCC7)ccc6C5=O)ccc4[nH]3)cc2)c1` [Example 23, N-(3-methylphenyl)-2-(4-(5-(1-oxo-5-(piperidin-1-yl)-1,3-dihydro-2H-isoindol-2-yl)-1H-benzimidazol-2-yl)phenoxy)acetamide], the “average fluorescent intensity (at 1 μM)” value is listed as 1386.
Turning to `O=C(COc1ccc(-c2nc3cc(N4Cc5cc(N6CCCCC6)ccc5C4=O)ccc3[nH]2)cc1)NCCCc1ccccc1` [Example 24, 2-(4-(5-(1-oxo-5-(piperidin-1-yl)-1,3-dihydro-2H-isoindol-2-yl)-1H-benzimidazol-2-yl)phenoxy)-N-(3-phenylpropyl)acetamide], the “average fluorescent intensity (at 1 μM)” value turned out to be 1241 and the “average fluorescent intensity (at 30 μM)” value is on record as “—”.
The corresponding values for `O=C(COc1ccc(-c2nc3cc(N4Cc5cc(N6CCCCC6)ccc5C4=O)ccc3[nH]2)cc1)NC1CC1` [Example 25, N-cyclopropyl-2-(4-(5-(1-oxo-5-(piperidin-1-yl)-1,3-dihydro-2H-isoindol-2-yl)-1H-benzimidazol-2-yl)phenoxy)acetamide] are 1260 and 900.
The corresponding values for `CC(C)CNC(=O)COc1ccc(-c2nc3cc(N4Cc5cc(N6CCCCC6)ccc5C4=O)ccc3[nH]2)cc1` [Example 26, N-isobutyl-2-(4-(5-(1-oxo-5-(piperidin-1-yl)-1,3-dihydro-2H-isoindol-2-yl)-1H-benzimidazol-2-yl)phenoxy)acetamide] are 1809 and “—”.
Take `O=C(COc1ccc(-c2nc3cc(N4Cc5cc(N6CCCCC6)ccc5C4=O)ccc3[nH]2)cc1)NCC1CC1` [Example 27, N-(cyclopropylmethyl)-2-(4-(5-(1-oxo-5-(piperidin-1-yl)-1,3-dihydro-2H-isoindol-2-yl)-1H-benzimidazol-2-yl)phenoxy)acetamide]: the “average fluorescent intensity (at 1 μM)” value was 1821 and the “average fluorescent intensity (at 30 μM)” value was “—”.
As to `CCCNC(=O)COc1ccc(-c2nc3cc(N4Cc5cc(N6CCCCC6)ccc5C4=O)ccc3[nH]2)cc1` [Example 28, 2-(4-(5-(1-oxo-5-(piperidin-1-yl)-1,3-dihydro-2H-isoindol-2-yl)-1H-benzimidazol-2-yl)phenoxy)-N-propylacetamide], the “average fluorescent intensity (at 1 μM)” value is reported as 1540 and the “average fluorescent intensity (at 30 μM)” value was “—”.
As for `CC(C)NC(=O)COc1ccc(-c2nc3cc(N4Cc5cc(N6CCOCC6)ccc5C4=O)ccc3[nH]2)cc1` [Example 29, N-isopropyl-2-(4-(5-(5-(morpholin-4-yl)-1-oxo-1,3-dihydro-2H-isoindol-2-yl)-1H-benzimidazol-2-yl)phenoxy)acetamide], the “average fluorescent intensity (at 1 μM)” value worked out at 1120 and the “average fluorescent intensity (at 30 μM)” value is listed as 910.
As to `O=C(COc1ccc(-c2nc3cc(N4Cc5cc(N6CCOCC6)ccc5C4=O)ccc3[nH]2)cc1)NCC1CCOCC1` [Example 30, 2-(4-(5-(5-(morpholin-4-yl)-1-oxo-1,3-dihydro-2H-isoindol-2-yl)-1H-benzimidazol-2-yl)phenoxy)-N-(tetrahydro-2H-pyran-4-ylmethyl)acetamide], the “average fluorescent intensity (at 1 μM)” value is listed as 1005 and the “average fluorescent intensity (at 30 μM)” value is 876.
As for `O=C(COc1ccc(-c2nc3cc(N4Cc5cc(N6CCOCC6)ccc5C4=O)ccc3[nH]2)cc1)NC1CCOCC1` [Example 31, 2-(4-(5-(5-(morpholin-4-yl)-1-oxo-1,3-dihydro-2H-isoindol-2-yl)-1H-benzimidazol-2-yl)phenoxy)-N-(tetrahydro-2H-pyran-4-yl)acetamide], the “average fluorescent intensity (at 1 μM)” value turned out to be 736 and the “average fluorescent intensity (at 30 μM)” value is on record as 888.
In the case of `O=C(COc1ccc(-c2nc3cc(N4Cc5cc(N6CCOCC6)ccc5C4=O)ccc3[nH]2)cc1)N1CCOCC1` [Example 32, 5-(morpholin-4-yl)-2-(2-(4-(2-(morpholin-4-yl)-2-oxoethoxy)phenyl)-1H-benzimidazol-5-yl)isoindolin-1-one], the “average fluorescent intensity (at 1 μM)” value is listed as 1312 and the “average fluorescent intensity (at 30 μM)” value was determined as 1937.
The like results for `O=C(COc1ccc(-c2nc3cc(N4Cc5cc(N6CCOCC6)ccc5C4=O)ccc3[nH]2)cc1)N1CCCCC1` [Example 33, 5-(morpholin-4-yl)-2-(2-(4-(2-oxo-2-(piperidin-1-yl)ethoxy)phenyl)-1H-benzimidazol-5-yl)isoindolin-1-one] were, in that order, 1568 and 3010.
The like results for `O=C(COc1ccc(-c2nc3cc(N4Cc5cc(N6CCOCC6)ccc5C4=O)ccc3[nH]2)cc1)N1CCCC1` [Example 34, 5-(morpholin-4-yl)-2-(2-(4-(2-oxo-2-(pyrrolidin-1-yl)ethoxy)phenyl)-1H-benzimidazol-5-yl)isoindolin-1-one] were, in that order, 1540 and “—”.
Take `O=C(COc1ccc(-c2nc3cc(N4Cc5cc(N6CCOCC6)ccc5C4=O)ccc3[nH]2)cc1)Nc1ccncc1` [Example 35, 2-(4-(5-(5-(morpholin-4-yl)-1-oxo-1,3-dihydro-2H-isoindol-2-yl)-1H-benzimidazol-2-yl)phenoxy)-N-(pyridin-4-yl)acetamide]: the “average fluorescent intensity (at 1 μM)” value was determined as 1536 and the “average fluorescent intensity (at 30 μM)” value amounted to 1204.
The like results for `O=C(COc1ccc(-c2nc3cc(N4Cc5cc(N6CCOCC6)ccc5C4=O)ccc3[nH]2)cc1)NCc1ccccc1` [Example 36, N-benzyl-2-(4-(5-(5-(morpholin-4-yl)-1-oxo-1,3-dihydro-2H-isoindol-2-yl)-1H-benzimidazol-2-yl)phenoxy)acetamide] were, in that order, 1006 and 1743.
With `O=C(COc1ccc(-c2nc3cc(N4Cc5cc(N6CCOCC6)ccc5C4=O)ccc3[nH]2)cc1)Nc1ccccc1` [Example 37, 2-(4-(5-(5-(rnorpholin-4-yl)-1-oxo-1,3-dihydro-2H-isoindol-2-yl)-1H-benzimidazol-2-yl)phenoxy)-N-phenylacetamide], the “average fluorescent intensity (at 1 μM)” value stood at 1696 and the “average fluorescent intensity (at 30 μM)” value is on record as 1290.
`CN(C)C(=O)COc1ccc(-c2nc3cc(N4Cc5cc(N6CCOCC6)ccc5C4=O)ccc3[nH]2)cc1` [Example 38, N,N-dimethyl-2-(4-(5-(5-(morpholin-4-yl)-1-oxo-1,3-dihydro-2H-isoindol-2-yl)-1H-benzimidazol-2-yl)phenoxy)acetamide]: the “average fluorescent intensity (at 1 μM)” value came out at 1633 and the “average fluorescent intensity (at 30 μM)” value was “—”.
